Test results from US8945549B2, “Methods of treating antinociceptive tolerance” (Saint Louis University, priority 2010, dated 2015).

Columns and labels:
Male Sprague Dawley rats [1] = test: Thermal hyperalgesia (Hargreaves paw-withdrawal latency) in rats with chronic s.c. morphine or saline infusion; format: in vivo, rat; settings: for development of morphine-induced hyperalgesia: daily i.th for 6 days with s.c. morphine infusion, Myr 0.3, FB1 1, D609 1, DMS 0.3, SK-1 0.3 μM/day; for effect on paw-withdrawal latencies: drug alone vs Veh-Sal; for effect on paw-withdrawal latencies / Paw-Withdrawal Latency: day 6; for Paw-Withdrawal Latency: drug given alone i.th daily over 6 days to saline-infused rats, mean ± SEM; for effect on hindpaw withdrawal latencies when given alone: daily i.th 3 μM/day, saline-infused rats, vs vehicle group
Experimental: (§1) Osmotic pump implantation. Rats, under light isoflurane anesthesia, were subcutaneously implanted (in the interscapular region) with osmotic pumps (Alzet 2001; Alza, Mountain View Calif.), to deliver saline at 1 μl/h or morphine at 75 μg μl^−1h^−1 over 7 days as described (Vera-Portocarrero et al., 2006). Minipumps were filled according to manufacturer's specifications. The use of the osmotic pump ensures a continuous delivery of morphine avoiding intermittent periods of withdrawal. The integrity of the pump delivery system was reexamined at the end of each experiment when the spinal cords were harvested.
(§2) Drug administration. The test substances fumonisin B1 (FB 1, Sigma-Aldrich, St. Louis, Mo.), myriocin (Myr Sigma-Aldrich, St. Louis, Mo.), D609 (Tricyclodecan-9-ylxanthogenate, K; Calbiochem, San Diego, Calif.), DMS (N,N-Dimethylsphingosine, Caymen Chemical, Ann Arbor, Mich.), SK-I 2-(p-hydroxyanilino)-4-(p-chlorophenyl) thiazole, Calbiochem, San Diego, Calif.) or their vehicle (0.5% in DMSO) were delivered by intrathecal (i.th) injection in rats chronically implanted with i.th cannulas as described previously (Storkson et al., 1996). Test substances were injected i.th once a day for 6 days in a total volume of 10 μl followed by a 10 μl flush with sterile physiological saline.
Behavioral tests. Thermal hyperalgesia. The method of Hargreaves and colleagues was used to assess changes in baseline nociceptive responses to a thermal nociceptive stimulus (Hargreaves et al., 1988). Animals were allowed to acclimate within a Plexiglas enclosure on a clear glass plate in a quiet testing room. A radiant heat source is focused onto the plantar aspect of the hindpaw with baseline latencies of 18-20 sec. and a maximal cutoff time of 20 sec to prevent tissue damage. The paw-withdrawal latency is determined by a motion detector activated by the paw withdrawal, stopping a timer. Foot withdrawal latencies were taken on the day before implantation of the minipumps (baseline) and subsequently on days 1, 3 and 6 of the experimental period to determine whether morphine-tolerant animals develop increased sensitivity to thermal stimulation. A significant (P<0.05) reduction in paw-withdrawal latency over time and before implantation of the osmotic minipump is characterized as thermal hyperalgesia. […]

Male Sprague Dawley rats [2] = test: Antinociceptive tolerance (tail flick after acute morphine) in rats with chronic s.c. morphine or saline infusion; format: in vivo, rat; settings: for development of morphine antinociceptive tolerance: daily i.th for 6 days with s.c. morphine infusion, Myr 0.3, FB1 1, D609 1, DMS 0.3, SK-1 0.3 μM/day; for effect on antinociceptive responses to acute morphine: drug alone vs Veh-Sal; for effect on antinociceptive responses to acute morphine / % MPE (Tail-flick): day 6; for % MPE (Tail-flick): drug given alone i.th daily over 6 days to saline-infused rats, response to acute morphine, mean ± SEM; for effect on tail flick latencies when given alone: daily i.th 3 μM/day, saline-infused rats, vs vehicle group
Experimental: as §1, §2
After the Hargreave's test, the development of antinociceptive tolerance was determined in all animals as follows. Acute nociception. The tail flick test which measures, withdrawal latencies of the tail from a noxious radiant heat source was used to measure thermal nociceptive sensitivity with baseline latencies of 4-5 sec and it cut-off time of 10 sec to prevent tissue injury (D'Amour, 1941). […]. Test substances or vehicle were given on day 0-6 after completion of the behavioral tests. At the required time points, after the behavioral tests, spinal cord tissues from the lumbar, enlargement segment of the spinal cord (L4-L6) and dorsal horn tissues were removed and tissues processed for immunohistochemical, Western blot and biochemical analysis. All experiments were conducted with the experimenters blinded to treatment conditions. […]

S1P = S1P levels in dorsal horn tissue by ELISA; format: in vivo, rat
S1P5 = S1P5 (Homo sapiens, UniProt Q9H228); settings: relative to S1P1; cited from earlier work
S1P2 = S1P2 (Homo sapiens, UniProt O95136); settings: cited from earlier work
rats [3] = test: Carrageenan-induced thermal hyperalgesia; format: in vivo, rat
[4] = Carrageenan-induced inflammation; format: in vivo; settings: intraplantar injection 15 min before carrageenan
Male Sprague Dawley rats [5] = test: Antinociceptive tolerance (tail flick after acute morphine) in rats with chronic s.c. morphine or saline infusion; format: in vivo, rat; settings: acute i.th injection; n=4, not shown
Male Sprague Dawley rats [6] = test: Paclitaxel-induced neuropathic pain (mechano-allodynia, mechano-hyperalgesia); format: in vivo, rat
Experimental: Paclitaxel-Induced: Paclitaxcel-induced pain was studied by means of the well-characterized rat model developed by Bennett in which repeated intraperitoneal (i.p) injections of low doses of paclitaxel are administered to induce neuropathic pain (methano-allodynia and mechano-hyperalgesia) with little systemic toxicity or motor impairment (Polomano et al., Pain 94, 293-304 (2001)). The behavioral responses last for several weeks to months, thus modeling painful neuropathies in patients. Paclitaxel (Parentapharm. Yardley, Pa.) or its vehicle (Cremophor EL and 95% dehydrated ethanol in 1:1 ratio) was injected i.p in rats on four alternate days (day 0, 2, 4 and 6 with a final cumulative dose of 4 mg/kg). MnTE-2-PyP^5+, W146 (source), W140 (source) or their vehicle were delivered by intrathecal (i.th) injection (total volume of 10 μl followed by a 10 μl flush with sterile physiological saline) in rats chronically implanted with i.th cannulas using the L5/L6 lumbar approach, as described previously and Commonly used for drug delivery (Ramos et al. Neuroscience 169, 1888-1900 (2010); Schoeniger-Skinner, Brain Behav Immun 21, 660-667 (2007); Doyle, et al. Neurosci Lett (2010)). Drugs were injected 30 min before paclitaxel or its vehicle from day (D) 0 and then daily up to D15. In another set of experiments, Fingolimod (Fingolimod, Cayman Chemicals, Ann Arbor, Mich.) or its vehicle (1.2% ethanol in saline) were given by intraperitoneal injection (i.p., 0.2 ml) from D0 to D15; behavioral testing was carried out on D0 and at baseline and subsequently on D12, D16 and D22.
Behavioral testing: Baseline values were taken from all rats on day 0 Baseline. Drugs or vehicles under investigation were then given, followed 30 min later by a chemotherapeutic or vehicle. Behavioral testing was subsequently carried out on D12, D16 and D22.
Mechano-Allodynia and mechano-hyperalgesia: Mechanical withdrawal thresholds were assessed with an automated electronic version of the von Frey test (dynamic plantar aesthesiometer, model 37450; Ugo Basile, Milan, Italy). Each rat was placed in a Plexiglas chamber (28×40×35-cm, wire mesh floor) and allowed to acclimate for fifteen minutes. […] The pressure evoking a clear voluntary hind-paw withdrawal response (normally 40-45 g) was recorded automatically and taken as the mechanical threshold index. Mechanical threshold was assessed three times at each time point to yield a mean value, which is reported as mean absolute threshold (grams, g). […] Mechanical-hyperalgesia was assessed by the Randall and Sellitto paw pressure test 6 using an Ugo-Basile analgesiometer, which applies a linearly increasing mechanical force to the dorsum of the rat's hind paw. […]

rats [7] = test: Ceramide-induced thermal hyperalgesia (intraplantar); format: in vivo, rat
[8] = S1P-induced thermal hyperalgesia (intraplantar); format: in vivo; settings: intraplantar W146 15 minutes before intraplantar S1P
rats [9] = test: Antinociceptive response to acute morphine (tail flick latency); format: in vivo, rat; settings: W146 1 pM i.th 15 min before morphine 1, 3 or 6 mg/kg i.p; tail flick 30 min after morphine
Experimental: Acute nociception. The tail flick test, which measures withdrawal latencies of the tail from a noxious radiant heat source, was used to measure thermal nociceptive sensitivity with baseline latencies of 2-3 sec and a cut-off time of 10 sec to prevent tissue injury (D'Amour, J Pharmacol Exp Ther 72, 74-79 (1941)). […] Test substances or vehicle were given on day 0 through 6 after completion of the behavioral tests.
(§3) Tail flick latency (s) was tested before and 30 min after morphine (FIG. 26).

rats [10] = settings: rat, in vivo
Experimental: as §3

[11] = target: S1P1 subtype, human receptor (Homo sapiens, UniProt P21453); settings: GTP-γS binding assay; cited from earlier work
murine S1P1 subtype = murine S1P1 subtype (Mus musculus, UniProt O08530); settings: cited from earlier work
[12] = tested on: other known S1P receptor subtypes; settings: at doses as high as 10-20 μM; cited from earlier work
[13] = 3 μM/day i.th co-administered with morphine infusion
[14] = daily intrathecal, W146 0.3-3 μM/day, W140 3 μM/day

Chain of S1P5 (Q9H228 whole entry, species assumed): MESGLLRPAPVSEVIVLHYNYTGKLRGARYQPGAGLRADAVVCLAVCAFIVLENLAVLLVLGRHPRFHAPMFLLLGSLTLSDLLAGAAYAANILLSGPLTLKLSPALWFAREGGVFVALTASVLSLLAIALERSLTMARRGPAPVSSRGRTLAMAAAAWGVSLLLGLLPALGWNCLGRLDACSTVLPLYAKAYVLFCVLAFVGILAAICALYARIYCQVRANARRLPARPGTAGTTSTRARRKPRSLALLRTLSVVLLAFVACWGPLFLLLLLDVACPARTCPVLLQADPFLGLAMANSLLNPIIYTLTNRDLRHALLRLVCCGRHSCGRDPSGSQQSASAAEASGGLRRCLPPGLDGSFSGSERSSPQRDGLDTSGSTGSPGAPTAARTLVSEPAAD
Chain of S1P1 subtype, human receptor (P21453 whole entry): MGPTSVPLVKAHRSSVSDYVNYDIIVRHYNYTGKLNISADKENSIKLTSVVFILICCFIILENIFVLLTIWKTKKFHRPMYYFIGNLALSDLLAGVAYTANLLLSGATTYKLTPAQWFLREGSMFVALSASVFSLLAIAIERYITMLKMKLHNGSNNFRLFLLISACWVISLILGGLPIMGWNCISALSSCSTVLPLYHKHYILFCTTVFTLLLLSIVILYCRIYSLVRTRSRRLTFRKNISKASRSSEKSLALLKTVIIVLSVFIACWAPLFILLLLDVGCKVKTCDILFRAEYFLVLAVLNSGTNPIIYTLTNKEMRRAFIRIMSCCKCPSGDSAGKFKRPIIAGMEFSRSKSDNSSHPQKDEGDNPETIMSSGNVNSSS
Chain of S1P2 (O95136 whole entry, species assumed): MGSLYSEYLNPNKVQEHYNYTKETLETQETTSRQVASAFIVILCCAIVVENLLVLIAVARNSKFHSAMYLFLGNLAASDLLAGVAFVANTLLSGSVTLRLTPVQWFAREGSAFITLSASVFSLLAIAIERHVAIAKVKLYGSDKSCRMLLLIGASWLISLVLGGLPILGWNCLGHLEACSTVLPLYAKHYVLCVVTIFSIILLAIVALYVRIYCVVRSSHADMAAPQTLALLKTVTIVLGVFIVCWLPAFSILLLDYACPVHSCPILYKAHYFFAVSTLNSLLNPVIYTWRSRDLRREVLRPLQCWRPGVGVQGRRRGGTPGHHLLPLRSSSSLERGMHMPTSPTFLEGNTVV
Chain of murine S1P1 subtype (O08530 whole entry): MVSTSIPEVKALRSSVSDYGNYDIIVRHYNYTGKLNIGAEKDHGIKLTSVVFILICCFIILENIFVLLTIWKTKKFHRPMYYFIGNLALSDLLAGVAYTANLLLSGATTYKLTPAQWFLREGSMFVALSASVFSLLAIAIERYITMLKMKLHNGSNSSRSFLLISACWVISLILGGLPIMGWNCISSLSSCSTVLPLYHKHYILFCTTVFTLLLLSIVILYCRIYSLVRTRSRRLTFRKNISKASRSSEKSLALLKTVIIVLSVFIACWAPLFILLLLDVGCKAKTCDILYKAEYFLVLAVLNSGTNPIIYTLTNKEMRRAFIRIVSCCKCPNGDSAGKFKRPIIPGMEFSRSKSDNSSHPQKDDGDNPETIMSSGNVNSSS

Compound | development of morphine-induced hyperalgesia (Male Sprague Dawley rats [1]) | effect on paw-withdrawal latencies (Male Sprague Dawley rats [1]) | Paw-Withdrawal Latency (Male Sprague Dawley rats [1]) [s] | development of morphine antinociceptive tolerance (Male Sprague Dawley rats [2]) | effect on antinociceptive responses to acute morphine (Male Sprague Dawley rats [2]) | % MPE (Tail-flick) (Male Sprague Dawley rats [2]) [%] | S1P (pg/mg tissue) (S1P; rat, in vivo) | morphine-induced increased production of S1P in dorsal horn tissues (S1P; rat, in vivo, sc) | other results
S=C([S-])OC1CC2CC1C1CCCC21.[K+] (stereo not drawn) [D609, Tricyclodecan-9-ylxanthogenate, K] | blocked | did not affect | 19 ± 0.7 | blocked | did not affect | 92 ± 3.0 | 1.5 ± 0.06 | blocked | effect on S1P levels in spinal cord tissues (S1P; rat, in vivo): did not affect
CCCC[C@@H](C)[C@@H](OC(=O)C[C@@H](CC(=O)O)C(=O)O)[C@H](C[C@@H](C)C[C@H](O)CCCC[C@@H](O)C[C@H](O)[C@H](C)N)OC(=O)C[C@@H](CC(=O)O)C(=O)O [FB1, fumonisin B1] | blocked | did not affect | 19 ± 0.8 | blocked | did not affect | 92 ± 3.2 | 1.4 ± 0.06 | blocked | effect on S1P levels in spinal cord tissues (S1P; rat, in vivo): did not affect
CCCCCCCCc1ccc(CC[C@](N)(CO)COP(=O)(O)O)cc1 [Fingolimod-P] | – | – | – | – | – | – | – | – | binding affinity for S1P5 (S1P5): slightly lower affinity; binding affinity for S1P2 (S1P2): no reported affinity
CCCCCCC(=O)CCCCCC/C=C/C[C@@H](O)[C@H](O)[C@@](N)(CO)C(=O)O [Myr, myriocin] | blocked | did not affect | 19 ± 0.5 | blocked | did not affect | 91 ± 3.0 | 1.2 ± 0.05 | blocked | effect on S1P levels in spinal cord tissues (S1P; drug alone vs Veh-Sal, day 6): did not affect
Oc1ccc(Nc2nc(-c3ccc(Cl)cc3)cs2)cc1 [SK-1, 2-(p-hydroxyanilino)-4-(p-chlorophenyl) thiazole] | blocked | did not affect | 19 ± 0.7 | blocked | did not affect | 99 ± 0.9 | 1.3 ± 0.06 | – | morphine-induced increased production of S1P in dorsal horn tissues (S1P; daily i.th for 6 days with s.c. morphine infusion, Myr 0.3, FB1 1, D609 1, DMS 0.3, SK-1 0.3 μM/day): blocked; effect on S1P levels in spinal cord tissues (S1P; drug alone vs Veh-Sal, day 6): did not affect; carrageenan-induced thermal hyperalgesia (rats [3]; intraplantar SK-1 250, 500 or 1000 ng): attenuated in a dose-dependent manner; carrageenan-induced inflammation [4]: blocks; reversal of tolerance once established (Male Sprague Dawley rats [5]): did not reverse
CCCCCCc1cccc(NC(=O)[C@@H](N)CCP(=O)(O)O)c1 [W140] | – | – | – | – | – | – | – | – | effect on hindpaw withdrawal latencies when given alone (Male Sprague Dawley rats [1]): had no effect; effect on tail flick latencies when given alone (Male Sprague Dawley rats [2]): had no effect
CCCCCCc1cccc(NC(=O)[C@H](N)CCP(=O)(O)O)c1 [W146] | – | – | – | – | – | – | – | – | block of development of thermal hyperalgesia (Male Sprague Dawley rats [1]; [13]): > 90%; effect on hindpaw withdrawal latencies when given alone (Male Sprague Dawley rats [1]): had no effect; block of development of antinociceptive tolerance (Male Sprague Dawley rats [2]; [13]): > 90%; effect on tail flick latencies when given alone (Male Sprague Dawley rats [2]): had no effect; baseline withdrawal thresholds when given alone (Male Sprague Dawley rats [6]; W146 3 μM/day, highest dose tested): did not affect; development of paclitaxel-induced mechano-allodynia (Male Sprague Dawley rats [6]; [14]): attenuated in a dose-dependent manner; development of paclitaxel-induced mechano-hyperalgesia (Male Sprague Dawley rats [6]; [14]): attenuated in a dose-dependent manner; reversal of Paclitaxel-induced neuropathic pain (Male Sprague Dawley rats [6]; given i.p on day 16, behavioral testing 60 minutes later): reverses; carrageenan-induced hyperalgesia (rats [3]; W146, FIG. 14): blocks; effect when given alone (no ceramide) (rats [7]): had no effect; ceramide-induced thermal hyperalgesia (rats [7]; LT1002 242 μg, LT1017 286 μg, W146 0.3, 0.6 or 1.2 μg, W140 1.2 μg): inhibited; development of S1P-induced thermal hyperalgesia [8]: blocked; effect on dose-response to acute morphine (rats [9]): did not modify; observable side effects (rats [10]): No observable side effects; Ki [11]: ~80 nM; potency at the murine S1P1 subtype relative to human (murine S1P1 subtype): equipotency; antagonistic or agonistic activity against other S1P receptor subtypes [12]: No-antagonistic (or agonistic) activity
